Measured values reported in publication PMC12015663 (Cancer Research Communications, 2025).

Legend:
[1] = system: pERK in AGK::BRAF fusion melanoma PDX tumors; assay: pERK modulation in vivo (PK-PD study), AGK::BRAF fusion melanoma PDX tumors, Western blot; design: species or system mice
Experimental: Tumor and plasma samples were collected at 4, 8, and 24 hours after dose administration (three mice per timepoint). […] Tumor and plasma samples were collected at 4 and 24 hours after dose administration (three mice per time point). Tumor samples were snap-frozen and analyzed by Western blotting for pERK levels. Plasma samples were analyzed by the LC/MS-MS method to confirm plasma drug concentration.
Tumor samples were lysed with RIPA buffer (Thermo Fisher Scientific, cat. no. 89901) containing one complete EDTA-free tablet (Roche, cat. no. 05892791001) and one phosphatase inhibitor cocktail tablet (Roche, cat. no. 04906845001) per 10 mL of RIPA buffer. Protein concentration was determined using bicinchoninic acid assay (Pierce, cat. no. 23227). Samples were loaded at 25 to 30 μg/lane on 4% to 12% NuPAGE Bis-Tris gels (Invitrogen, cat. no. WG1403BOX) and were run in MOPS-SDS running buffer (Invitrogen, cat. no. NP0001) at constant voltage (120V) for approximately 2 hours. The gels were transferred onto a pre-activated polyvinylidene fluoride membrane (Millipore, cat. no. IPVH00010) in transfer buffer (Bio-Rad, cat. no. 161-0734). […] Blots were scanned and quantified using the Odyssey (LI-COR Biosciences) or Tanon 5200 Multi Image system (Tanon), and each sample was normalized to allow comparison.

[2] = system: pERK in NCI-H1838 (NF1-LOF); assay: pERK modulation in vitro, MSD ELISA, NCI-H1838
plexiform neurofibroma = settings: GEMM models of plexiform neurofibroma, germline NF1-LOF mutations; cited from earlier work
[3] = system: pERK in A375 (BRAF V600E); assay: pERK modulation in vitro, MSD ELISA, A375; type: cell-based; settings: Homo sapiens, A-375, 1 h, read-out: pERK EC50

C[C@@H](NC(=O)c1ncnc(N)c1Cl)c1ncc(C(=O)Nc2cc(C(F)(F)F)c(Cl)cn2)s1 [Tovorafenib]
pERK in tumor compared with vehicle control ([1]; single oral dose 17.5 mg/kg, 8 and 24 hours after dose): Inhibition of pERK was observed | pERK in tumor compared with vehicle control ([1]; single oral dose 25 mg/kg, 4, 8, and 24 hours after dose): Inhibition of pERK was observed | EC50 ([2]; Homo sapiens, NCI-H1838, 1 h, read-out: pERK EC50): > 10000 nM | extent of the pERK increase ([2]; NCI-H1838, 1 hour after treatment, compared across type II RAF inhibitors): higher extent | pERK increase across the full concentration range ([2]; NCI-H1838, 6 hours after treatment): lack of increase in pERK | antitumor activity (plexiform neurofibroma): lack of tovorafenib antitumor activity | EC50 [3]: 70 nM
